2 compounds from US20250051332A1 (priority 2022, published 2025) can be followed below.

One assay deals with T1, μOR (Homo sapiens, UniProt P35372).
T1 construct: host or cells: CHO-K1
The assay is described as follows: cell-based. The class given is cell-based.

Another assay concerns the target T2, κOR (Homo sapiens, UniProt P41145).
T2 construct: host or cells: CHO-K1
The experiment in a line: PathHunter β-arrestin-2 recruitment assay at the κOR. The class given is cell-based. To be noted: FIG. 6. The text has this: Cell Lines and Cell Culture. To perform the HitHunter cAMP accumulation assay, Chinese hamster ovary cells (CHO-K1) stably expressing human μ-opioid receptor (OPRM1, catalog no. 95-0107C2, DiscoverX, Fremont, CA, USA), K-opioid receptor (OPRK1, catalog no. 95-0088C2, DiscoverX, Fremont, CA, USA), or 6-opioid receptor (OPRD1, catalog no. 95-0108C2, DiscoverX, Fremont, CA, USA) were maintained at 80% confluence in F-12 media supplemented with 10% fetal bovine serum, 1% penicillin/streptomycin/L-glutamine, and 800 μg/mL G418. To perform the PathHunter β-arrestin-2 recruitment assay, U2OS-human κ opioid receptor (κOR) cells stably expressing the κOR and β-arrestin-2 (RRID:CVCL_LA97, DiscoverX, Fremont, CA, USA) were maintained in McCoy's 5A media supplemented with 10% FBS and containing 500 μg/mL geneticin and 250 μg/mL hygromycin. All cells were grown 37° C. under 5% CO2 in a humidified incubator under sterile conditions in T75 flasks. During passaging, cells were dislodged from the flask following a 3-5 min incubation with 0.25% trypsin or non-enzymatic detachment reagent and subcultivated at ratios of 1:10 (CHO) and 3:10 (U2OS).
PathHunter β-arrestin-2 Recruitment Assay. The R-arrestin-2 recruitment assay was performed using U2OS-human (κOR) PathHunter R-arrestin-2 cells (DiscoverX) as previously described.^77
For orientation: Arrestin recruitment assays detect the binding of arrestin to an activated receptor.

A further assay addresses MOR (Homo sapiens, UniProt P35372). The assay is described as follows: PDSP radioligand displacement binding. Conditions: average of three independent trials. For orientation: Loss of bound radioactivity is the signal in a displacement assay; it reports binding, not function.
The next assay has as its target DOR (Homo sapiens, UniProt P41143). The assay is described as follows: PDSP radioligand displacement binding. Conditions: average of three independent trials.
The target of a further assay is T3, 5-HT3 (Homo sapiens, UniProt P46098).
T3 sequence (P46098 24-478): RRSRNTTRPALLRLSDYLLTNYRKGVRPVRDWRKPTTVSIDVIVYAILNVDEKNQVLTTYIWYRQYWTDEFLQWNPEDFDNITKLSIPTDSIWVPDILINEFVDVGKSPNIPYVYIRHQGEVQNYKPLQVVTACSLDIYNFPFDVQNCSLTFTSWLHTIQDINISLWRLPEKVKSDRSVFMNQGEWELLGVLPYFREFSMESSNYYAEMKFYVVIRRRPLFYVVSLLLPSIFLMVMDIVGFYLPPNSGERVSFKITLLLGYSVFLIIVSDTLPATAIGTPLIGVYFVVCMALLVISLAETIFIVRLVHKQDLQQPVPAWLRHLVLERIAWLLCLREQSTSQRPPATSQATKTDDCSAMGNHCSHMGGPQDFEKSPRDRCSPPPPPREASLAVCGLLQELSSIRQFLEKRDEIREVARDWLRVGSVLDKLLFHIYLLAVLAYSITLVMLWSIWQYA
The experiment in a line: PDSP radioligand displacement binding. To be noted: average of three independent trials.

The next assay addresses T4, Alpha1A (Homo sapiens, UniProt P35348).
T4 sequence (P35348 1-466): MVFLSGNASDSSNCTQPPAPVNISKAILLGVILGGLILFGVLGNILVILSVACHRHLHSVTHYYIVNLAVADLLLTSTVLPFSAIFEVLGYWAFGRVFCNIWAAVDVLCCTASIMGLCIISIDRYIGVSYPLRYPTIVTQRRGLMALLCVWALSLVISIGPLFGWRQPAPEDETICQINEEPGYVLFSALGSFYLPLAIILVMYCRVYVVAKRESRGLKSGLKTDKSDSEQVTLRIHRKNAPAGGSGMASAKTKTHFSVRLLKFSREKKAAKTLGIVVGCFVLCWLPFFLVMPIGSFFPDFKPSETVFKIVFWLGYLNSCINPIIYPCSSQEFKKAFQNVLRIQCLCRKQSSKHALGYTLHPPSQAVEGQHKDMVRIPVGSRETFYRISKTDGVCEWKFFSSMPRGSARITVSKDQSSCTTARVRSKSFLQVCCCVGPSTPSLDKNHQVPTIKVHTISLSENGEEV
The assay is described as follows: PDSP radioligand displacement binding. To be noted: average of three independent trials.

Another assay deals with T5, Alpha1D (Homo sapiens, UniProt P25100).
T5 sequence (P25100 1-572): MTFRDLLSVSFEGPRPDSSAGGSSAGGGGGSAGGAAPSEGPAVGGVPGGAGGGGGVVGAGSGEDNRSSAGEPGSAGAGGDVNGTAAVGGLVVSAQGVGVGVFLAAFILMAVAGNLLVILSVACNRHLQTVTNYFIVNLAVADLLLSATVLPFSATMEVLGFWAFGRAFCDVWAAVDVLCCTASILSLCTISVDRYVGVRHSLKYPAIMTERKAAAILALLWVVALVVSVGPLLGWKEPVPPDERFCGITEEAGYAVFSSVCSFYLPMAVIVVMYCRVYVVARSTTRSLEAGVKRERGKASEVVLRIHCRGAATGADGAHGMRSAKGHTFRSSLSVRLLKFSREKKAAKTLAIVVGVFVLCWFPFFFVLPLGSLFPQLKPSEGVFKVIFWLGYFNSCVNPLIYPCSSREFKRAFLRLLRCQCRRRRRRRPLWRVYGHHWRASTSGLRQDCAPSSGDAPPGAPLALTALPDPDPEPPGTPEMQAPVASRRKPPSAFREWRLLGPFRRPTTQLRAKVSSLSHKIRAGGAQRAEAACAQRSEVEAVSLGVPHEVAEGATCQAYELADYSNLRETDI
The experiment in a line: PDSP radioligand displacement binding. To be noted: average of three independent trials.

The next assay concerns the target T6, Alpha2C (Homo sapiens, UniProt P18825).
T6 sequence (P18825 1-462): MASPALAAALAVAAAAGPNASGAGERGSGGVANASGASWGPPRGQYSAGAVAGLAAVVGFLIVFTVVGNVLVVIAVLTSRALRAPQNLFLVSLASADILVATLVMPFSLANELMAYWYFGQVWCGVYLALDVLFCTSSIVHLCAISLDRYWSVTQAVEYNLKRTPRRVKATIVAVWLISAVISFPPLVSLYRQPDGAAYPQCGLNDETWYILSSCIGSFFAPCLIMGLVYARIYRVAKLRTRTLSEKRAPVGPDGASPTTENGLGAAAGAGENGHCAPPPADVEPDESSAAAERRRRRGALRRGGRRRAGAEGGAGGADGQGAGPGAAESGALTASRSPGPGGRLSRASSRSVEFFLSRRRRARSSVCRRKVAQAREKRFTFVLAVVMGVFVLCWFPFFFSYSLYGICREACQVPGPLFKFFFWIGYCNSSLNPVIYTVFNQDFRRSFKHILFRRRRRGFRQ
The experiment in a line: PDSP radioligand displacement binding. Conditions: average of three independent trials.

For the next assay, the target named is NET (Homo sapiens, UniProt P23975). The experiment in a line: PDSP radioligand displacement binding. To be noted: average of three independent trials.
NET, sequence (P23975 whole entry): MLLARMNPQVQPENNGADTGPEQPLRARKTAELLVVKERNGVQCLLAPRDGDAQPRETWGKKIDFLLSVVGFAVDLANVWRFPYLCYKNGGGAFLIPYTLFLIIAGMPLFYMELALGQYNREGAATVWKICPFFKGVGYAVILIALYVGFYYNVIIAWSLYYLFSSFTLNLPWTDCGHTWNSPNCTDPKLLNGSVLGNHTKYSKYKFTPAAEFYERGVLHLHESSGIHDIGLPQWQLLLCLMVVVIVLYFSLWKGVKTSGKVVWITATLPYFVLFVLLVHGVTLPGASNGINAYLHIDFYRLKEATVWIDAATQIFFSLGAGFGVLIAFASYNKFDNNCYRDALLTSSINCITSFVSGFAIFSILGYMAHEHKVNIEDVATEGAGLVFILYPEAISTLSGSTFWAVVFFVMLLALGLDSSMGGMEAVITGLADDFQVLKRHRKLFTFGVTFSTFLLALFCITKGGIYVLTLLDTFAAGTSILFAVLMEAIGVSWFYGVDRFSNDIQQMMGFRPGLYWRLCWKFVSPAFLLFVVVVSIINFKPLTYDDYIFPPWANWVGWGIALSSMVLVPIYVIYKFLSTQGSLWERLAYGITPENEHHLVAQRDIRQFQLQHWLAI

Where only a bound is given, the exact number is not on record here.

T1 sequence (P35372 whole entry): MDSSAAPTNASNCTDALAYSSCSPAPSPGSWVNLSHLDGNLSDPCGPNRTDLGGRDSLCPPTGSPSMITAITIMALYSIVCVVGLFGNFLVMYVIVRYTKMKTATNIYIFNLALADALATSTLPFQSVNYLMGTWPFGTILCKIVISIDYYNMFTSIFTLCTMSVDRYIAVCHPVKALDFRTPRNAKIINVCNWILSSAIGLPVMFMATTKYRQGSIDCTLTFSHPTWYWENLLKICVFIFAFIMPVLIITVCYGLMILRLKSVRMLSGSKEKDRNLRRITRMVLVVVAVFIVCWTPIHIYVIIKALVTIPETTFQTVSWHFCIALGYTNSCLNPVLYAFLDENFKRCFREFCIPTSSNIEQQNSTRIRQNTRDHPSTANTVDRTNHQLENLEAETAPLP
T2 sequence (P41145 whole entry): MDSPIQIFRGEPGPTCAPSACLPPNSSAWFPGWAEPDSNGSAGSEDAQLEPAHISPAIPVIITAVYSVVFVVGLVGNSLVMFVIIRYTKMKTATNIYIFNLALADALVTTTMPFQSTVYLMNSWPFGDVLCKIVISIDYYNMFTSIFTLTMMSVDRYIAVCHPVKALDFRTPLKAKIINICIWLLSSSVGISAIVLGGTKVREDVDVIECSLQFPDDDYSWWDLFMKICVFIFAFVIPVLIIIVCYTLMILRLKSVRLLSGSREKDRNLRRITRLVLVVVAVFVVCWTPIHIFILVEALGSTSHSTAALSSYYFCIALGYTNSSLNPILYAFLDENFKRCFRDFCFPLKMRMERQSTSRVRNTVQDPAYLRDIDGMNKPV
MOR, sequence (P35372 whole entry): as the sequence (P35372 whole entry) above
DOR, sequence (P41143 whole entry): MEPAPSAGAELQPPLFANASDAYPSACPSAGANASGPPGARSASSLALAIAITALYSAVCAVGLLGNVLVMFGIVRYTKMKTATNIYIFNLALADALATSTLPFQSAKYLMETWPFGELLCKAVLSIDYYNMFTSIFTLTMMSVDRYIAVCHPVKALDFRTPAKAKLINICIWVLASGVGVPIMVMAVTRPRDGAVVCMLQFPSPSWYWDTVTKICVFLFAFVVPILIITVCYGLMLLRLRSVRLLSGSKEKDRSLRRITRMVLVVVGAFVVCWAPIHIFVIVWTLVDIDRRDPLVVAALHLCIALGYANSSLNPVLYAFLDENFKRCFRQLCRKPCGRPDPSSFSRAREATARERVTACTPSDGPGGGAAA

As a reminder, the Ki is a dissociation constant, usually derived from enzyme kinetics or from competition with a known ligand. Low values mean tighter binding, high ones weaker binding. Turning to `C/C=C1/CN2CC[C@]34C(=C(C(=O)OC)[C@H]1C[C@H]23)Nc1ccc(Br)cc14` [Compound 2, 10-Bromoakuammicine], the “agonist activity at the μOR” value on μOR is listed as “only weakly activated the μOR”. Further, on κOR, the “βArr2 recruitment compared with U50,488” value is on record as “more efficacious than the reference compound U50,488”. For the same compound, the “Ki (nM) at MOR” value on MOR is “— (“—” indicates compound produced less than 50% displacement of radioligand in primary binding screen at 10 μM.)”. For the same compound, the “Ki (nM) at DOR” value on DOR is reported as “— (“—” indicates compound produced less than 50% displacement of radioligand in primary binding screen at 10 μM.)”. The inhibitory constant (Ki) at 5-HT3 was 210 nM; on Alpha1A it was 1000 nM; at Alpha2C it was 2910 nM. Also, the “Ki (nM) at Alpha1D” value at Alpha1D is “— (“—” indicates compound produced less than 50% displacement of radioligand in primary binding screen at 10 μM.)”. Moreover, at NET, the “Ki (nM) at NET” value is given as “— (“—” indicates compound produced less than 50% displacement of radioligand in primary binding screen at 10 μM.)”.
A word on the EC50: it is the concentration at which the effect is half-maximal. For `C/C=C1/CN2CC[C@]34C(=C(C(=O)OC)[C@H]1C[C@H]23)Nc1ccc(I)cc14` [Compound 3, 10-Iodoakuammicine], the “agonist activity at the μOR” value at μOR is “only weakly activated the μOR”. Further, the “μOR cAMP inhibition Emax ± SEM (%)” value at μOR is less than 10%. Moreover, the “μOR cAMP inhibition pEC50 ± SEM” value at μOR came out at 4.4 ± 1.9. For the same compound, the half-maximal effective concentration (EC50) on μOR (read-out: μOR cAMP inhibition EC50) worked out at 41000 nM. The “βArr2 recruitment compared with U50,488” value at κOR is recorded as “more efficacious than the reference compound U50,488”. Besides, the “Ki (nM) at MOR” value on MOR is reported as “— (“—” indicates compound produced less than 50% displacement of radioligand in primary binding screen at 10 μM.)”. Besides, the “Ki (nM) at DOR” value at DOR is reported as “— (“—” indicates compound produced less than 50% displacement of radioligand in primary binding screen at 10 μM.)”. The inhibition constant Ki on 5-HT3 stood at 384 nM; at Alpha1A, 883 nM; at Alpha1D, 1140 nM; on Alpha2C it was 2860 nM; on NET, 3440 nM.
